Experimental data reported in patent publication US20200038416A1, “METHODS OF TREATING CARDIAC CONDUCTION DEFECTS USING AMINOSTEROL COMPOSITIONS” (Enterin, Inc., priority 2018, published 2020).
Several values for one entry are separate records, joined by “and”; a condition that tells them apart may be missing. Identical values can stand only once.

Experiments:
Type in all cases: in vivo, human
[1] = system: patients with PD and constipation; test: Phase 2 trial safety and adverse event profile (Stages 1 and 2)
Method: Tolerability limits included diarrhea or vomiting.
(§1) In Stage 2, 34 patients were evaluated.

[2] = system: patients with PD and constipation; test: Phase 2 trial Stage 2: bowel function / stool related indices on daily oral dosing; conditions: for CSBM/week in the randomized cohort, Treatment (n = 6): baseline 0.8
Method: Following successful screening, all subjects underwent a 14-day run-in period where the degree of constipation was assessed through a validated daily log (Zinsmeister et al. 2013) establishing baseline CSBMs/week. Subjects with an average of <3 CSBMs/week proceeded to dosing.
as §1
The primary efficacy outcome variable was whether or not a subject was a “success” or “failure”. This is an endpoint based on subject diary entries for the “fixed dose” period prior to the endpoint assessment defined as average complete stool frequency increase by 1 or more over baseline, or 3 or more complete spontaneous stools/week. The subject was deemed a “success” if s/he met one or more of the criteria listed above, otherwise the subject was deemed a “failure”. The primary analysis was based on all subjects with a baseline assessment and an assessment at the end of the “fixed-dose” period and was a comparison of the proportion of successes with 0.10 (the null hypothesis corresponding to no treatment effect).

patients with PD = test: CNS symptoms in Stage 2 (UPDRS, MMSE, PDHQ, BDI-II, hallucinations); conditions: for patients whose hallucinations or delusions improved or disappeared during treatment: 6 patients with hallucinations (5) or delusions (1) at baseline
Description: Exploratory end-points, in addition to constipation, included for example, (i) depression assessed using the Beck Depression Inventory (BDI-II) (Steer et al. 2000) and Unified Parkinson's Disease Rating Scale (UPDRS); (ii) cognition assessed using the Mini Mental State Examination (MMSE), Unified Parkinson's Disease Rating Scale (UPDRS), and Trail Making Test (TMT); (iii) sleep and REM-behavior disorder (RBD) using a daily sleep diary, I-Button Temperature Assessment, a REM sleep behavior disorder (RBD) questionnaire (RBDQ) (Stiasny-Kolster et al. 2007), and the UPDRS; (iv) hallucinations assessed using the PD hallucinations questionnaire (PDHQ) (Papapetropoulos et al. 2008), the UPDRS, and direct questioning; (v) fatigue using the Parkinson's Disease Fatigue Scale (PFS-16) and the UPDRS; (vi) motor functions using the UPDRS; and (vii) non-motor functions using the UPDRS.
Assessments were made at baseline and at the end of the fixed dose and washout periods. Circadian system status was evaluated by continuously monitoring wrist skin temperature (Thermochron iButton DS1921H; Maxim, Dallas) following published procedures (Sarabia et al. 2008).
An exploratory analysis was done with respect to the sleep data, the body temperature data, mood, fatigue, hallucinations, cognition and other motor and non-motor symptoms of PD. Continuous measurements within a subject were compared with a paired t-test and continuous measurements between subject groups were compared with a two-group t-test. Categorical data were compared with a chi-squared test or a Fisher's exact test if the expected cell counts are too small for a chi-squared test.
CNS symptoms were evaluated at baseline and at the end of the fixed dose period and the wash-out period (Table 12). Total UPDRS score was 64.4 at baseline, 60.6 at the end of the fixed dose period and 55.7 at the end of the wash-out period (p=0.002); similarly, the motor component of the UPDRS improved from 35.3 at baseline to 33.3 at the end of fixed dose to 30.2 at the end of wash-out (p=0.006). MMSE improved from 28.4 at baseline to 28.7 during treatment and to 29.3 during wash-out (p=0.0006). […] PDHQ improved from 1.3 at baseline to 1.8 during treatment and 0.9 during wash-out (p=0.03). Hallucinations were reported by 5 patients at baseline and delusions in 1 patient. […] The frequency of arm or leg thrashing reported in the sleep diary diminished progressively from 2.2 episodes/week at baseline to 0 at maximal dose. […] Unlike stool-related indices, the improvement in many CNS symptoms persisted during wash-out.

[3] = Stage 1, 10 dosed, unrelated to ENT-01

SMILES: CC(C)[C@@H](CC[C@@H](C)[C@H]1CC[C@H]2[C@@H]3[C@H](O)C[C@H]4C[C@@H](NCCCNCCCCN)CC[C@]4(C)[C@H]3CC[C@]12C)OS(=O)(=O)O (single isomer, unassigned) [squalamine (ENT-01), squalamine]
- share of AEs confined to the GI tract ([1]; Stage 1): 88%
- patients with diarrhea ([1]; Stage 1, 4/10): 40%
- patients with nausea ([1]; Stage 1, 4/10): 40%
- Abdominal pain, Mild: patients with adverse event ([1]; Stage 1, 10 dosed): 2 (20) n, %
- Abdominal pain, Moderate: patients with adverse event ([1]; Stage 1, 10 dosed): 3 (30) n, %
- Blood in urine, Moderate: patients with adverse event ([1]; Stage 1, 10 dosed): 0 n, %
- Diarrhea, Mild: patients with adverse event ([1]; Stage 1, 10 dosed): 1 (10) n, %
- Diarrhea, Moderate: patients with adverse event ([1]; Stage 1, 10 dosed): 3 (30) n, %
- Diarrhea, Severe: patients with adverse event ([1]; Stage 1, 10 dosed): 0 n, %
- Difficulty falling asleep, Mild: patients with adverse event ([1]; Stage 1, 10 dosed): 0 n, %
- Difficulty falling asleep, Moderate: patients with adverse event ([1]; Stage 1, 10 dosed): 0 n, %
- Dizziness, Mild: patients with adverse event ([1]; Stage 1, 10 dosed): 0 n, %
- Dizziness, Moderate: patients with adverse event ([1]; Stage 1, 10 dosed): 0 n, %
- Eye infection, Mild: patients with adverse event ([1]; Stage 1, 10 dosed): 0 n, %
- Eye infection, Moderate: patients with adverse event ([1]; Stage 1, 10 dosed): 0 n, %
- Flatulence, Mild: patients with adverse event ([1]; Stage 1, 10 dosed): 2 (20) n, %
- Flatulence, Moderate: patients with adverse event ([1]; Stage 1, 10 dosed): 0 n, %
- Headache, Mild: patients with adverse event ([1]; Stage 1, 10 dosed): 1 (10) n, %
- Headache, Moderate: patients with adverse event ([1]; Stage 1, 10 dosed): 0 n, %
- Increased urinary frequency, Mild: patients with adverse event ([1]; Stage 1, 10 dosed): 0 n, %
- Increased urinary frequency, Moderate: patients with adverse event ([1]; Stage 1, 10 dosed): 0 n, %
- Loss of appetite, Moderate: patients with adverse event ([1]; Stage 1, 10 dosed): 0 n, %
- Lower GI bleed, Severe: patients with adverse event ([1]; Stage 1, 10 dosed): 0 n, %
- Nausea, Mild: patients with adverse event ([1]; Stage 1, 10 dosed): 4 (40) n, %
- Nausea, Moderate: patients with adverse event ([1]; Stage 1, 10 dosed): 0 n, %
- Skin lesions-rash, Mild: patients with adverse event ([1]; Stage 1, 10 dosed): 0 n, %
- Skin lesions-rash, Moderate: patients with adverse event ([1]; Stage 1, 10 dosed): 0 n, %
- Urinary retention, Mild: patients with adverse event ([1]; Stage 1, 10 dosed): 0 n, %
- Urinary retention, Moderate: patients with adverse event ([1]; Stage 1, 10 dosed): 0 n, %
- Urinary tract infection, Mild: patients with adverse event ([1]; Stage 1, 10 dosed): 0 n, %
- Urinary tract infection, Moderate: patients with adverse event ([1]; Stage 1, 10 dosed): 0 n, %
- Vomiting, Mild: patients with adverse event ([1]; Stage 1, 10 dosed): 1 (10) n, %
- Vomiting, Moderate: patients with adverse event ([1]; Stage 1, 10 dosed): 0 n, %
- Worsening acid reflux, Mild: patients with adverse event ([1]; Stage 1, 10 dosed): 0 n, %
- Worsening acid reflux, Moderate: patients with adverse event ([1]; Stage 1, 10 dosed): 0 n, %
- Worsening hemorrhoid, Mild: patients with adverse event ([1]; Stage 1, 10 dosed): 0 n, %
- Worsening hemorrhoid, Moderate: patients with adverse event ([1]; Stage 1, 10 dosed): 0 n, %
- Blood in urine, Mild: patients with adverse event [1, 3]: 1 (10) n, %
- Loss of appetite, Mild: patients with adverse event [1, 3]: 1 (10) n, %
- share of AEs confined to the GI tract ([1]; Stage 2): 63%
- Abdominal pain, Mild: patients with adverse event ([1]; Stage 2, 34 dosed): 4 n
- Abdominal pain, Moderate: patients with adverse event ([1]; Stage 2, 34 dosed): 2 n
- Blood in urine, Mild: patients with adverse event ([1]; Stage 2, 34 dosed): 0 n
- Blood in urine, Moderate: patients with adverse event ([1]; Stage 2, 34 dosed): 0 n
- Diarrhea, Mild: patients with adverse event ([1]; Stage 2, 34 dosed): 12 n
- Diarrhea, Moderate: patients with adverse event ([1]; Stage 2, 34 dosed): 2 n
- Diarrhea, Severe: patients with adverse event ([1]; Stage 2, 34 dosed): 1 n
- Difficulty falling asleep, Mild: patients with adverse event ([1]; Stage 2, 34 dosed): 1 n
- Difficulty falling asleep, Moderate: patients with adverse event ([1]; Stage 2, 34 dosed): 0 n
- Dizziness, Mild: patients with adverse event ([1]; Stage 2, 34 dosed): 7 n
- Dizziness, Moderate: patients with adverse event ([1]; Stage 2, 34 dosed): 1 n
- Eye infection, Mild: patients with adverse event ([1]; Stage 2, 34 dosed): 1 n
- Eye infection, Moderate: patients with adverse event ([1]; Stage 2, 34 dosed): 0 n
- Flatulence, Mild: patients with adverse event ([1]; Stage 2, 34 dosed): 1 n
- Flatulence, Moderate: patients with adverse event ([1]; Stage 2, 34 dosed): 0 n
- Headache, Mild: patients with adverse event ([1]; Stage 2, 34 dosed): 3 n
- Headache, Moderate: patients with adverse event ([1]; Stage 2, 34 dosed): 0 n
- Increased urinary frequency, Mild: patients with adverse event ([1]; Stage 2, 34 dosed): 2 n
- Increased urinary frequency, Moderate: patients with adverse event ([1]; Stage 2, 34 dosed): 0 n
- Loss of appetite, Mild: patients with adverse event ([1]; Stage 2, 34 dosed): 0 n
- Loss of appetite, Moderate: patients with adverse event ([1]; Stage 2, 34 dosed): 0 n
- Nausea, Mild: patients with adverse event ([1]; Stage 2, 34 dosed): 18 n
- Nausea, Moderate: patients with adverse event ([1]; Stage 2, 34 dosed): 1 n
- Skin lesions-rash, Mild: patients with adverse event ([1]; Stage 2, 34 dosed): 3 n
- Skin lesions-rash, Moderate: patients with adverse event ([1]; Stage 2, 34 dosed): 0 n
- Urinary retention, Mild: patients with adverse event ([1]; Stage 2, 34 dosed): 1 n
- Urinary retention, Moderate: patients with adverse event ([1]; Stage 2, 34 dosed): 0 n
- Urinary tract infection, Mild: patients with adverse event ([1]; Stage 2, 34 dosed): 1 n
- Urinary tract infection, Moderate: patients with adverse event ([1]; Stage 2, 34 dosed): 2 n
- Vomiting, Mild: patients with adverse event ([1]; Stage 2, 34 dosed): 2 n
- Vomiting, Moderate: patients with adverse event ([1]; Stage 2, 34 dosed): 0 n
- Worsening acid reflux, Mild: patients with adverse event ([1]; Stage 2, 34 dosed): 4 n
- Worsening acid reflux, Moderate: patients with adverse event ([1]; Stage 2, 34 dosed): 0 n
- Worsening hemorrhoid, Mild: patients with adverse event ([1]; Stage 2, 34 dosed): 1 n
- Worsening hemorrhoid, Moderate: patients with adverse event ([1]; Stage 2, 34 dosed): 0 n
- Lower GI bleed, Severe: patients with adverse event ([1]; Stage 2, colonic diverticulosis, polyp, patient on aspirin, Plavix and naproxen, unrelated to ENT-01): 1 n
- CSBM/week in the randomized cohort, group later randomized to Placebo (n = 9) ([2]; Fixed dose period (on drug, before randomization), baseline 1.6): 3.3 CSBM/week
- CSBM/week in the randomized cohort, Treatment (n = 6) ([2]; Fixed dose period): 3.2 CSBM/week
- CSBM/week in the randomized cohort, Treatment (n = 6) ([2]; Randomized period (4-6 days continued treatment)): 2.4 CSBM/week
- CSBM/week in the randomized cohort, Treatment (n = 6) ([2]; Washout): 0.9 CSBM/week
- patients whose hallucinations or delusions improved or disappeared during treatment (patients with PD): five and 5 of 6
- patients whose hallucinations or delusions improved or disappeared during treatment (patients with PD; listed as ENT-01): five
- improvement in Part 1 of the UPDRS (patients with PD; baseline 11.6 to wash-out 9.5): ~20%
- time hallucinations/delusions did not return following discontinuation (patients with PD; single patients): 4 weeks and 2 weeks
